In patent USRE31396E, “A-21978 Antibiotics and process for their production” (priority 1982, dated 1983):
In brackets after ≈: the same amount, converted by molar mass. Like-named read-outs stand apart in the source and are kept apart here.

What was measured:
[1] = tested on: Staphylococcus aureus 3055; assay: Standard agar-dilution test; format: cell-based
[2] = tested on: Group D Streptococcus 282; assay: Standard agar-dilution test; format: cell-based
[3] = tested on: Streptococcus pyogenes C203; assay: Standard agar-dilution test; format: cell-based
[4] = tested on: Streptococcus pneumoniae Park I; assay: Standard agar-dilution test; format: cell-based
[5] = tested on: Viridans Streptococcus 9943; assay: Standard agar-dilution test; format: cell-based
[6] = tested on: Neisseria gonorrhoeae 111076-4; assay: Standard agar-dilution test; format: cell-based
[7] = tested on: Staphylococcus aureus 3055; assay: Standard broth-dilution test; format: cell-based
[8] = tested on: Group D Streptococcus 282; assay: Standard broth-dilution test; format: cell-based
[9] = tested on: Streptococcus pyogenes C203; assay: Standard broth-dilution test; format: cell-based
[10] = tested on: Streptococcus pneumoniae Park I; assay: Standard broth-dilution test; format: cell-based
[11] = tested on: Viridans Streptococcus 9943; assay: Standard broth-dilution test; format: cell-based
Staphylococcus aureus [12] = assay: ICS agar-dilution, clinical isolates; format: cell-based; details: Staphylococcus aureus (10 isolates), MIC or MIC range of isolates
[13] = tested on: Staphylococcus epidermidis; assay: ICS agar-dilution, clinical isolates; format: cell-based; details: Staphylococcus epidermidis (12 isolates)
Actinomyces israelii = assay: Standard agar-dilution test, anaerobic bacteria; format: cell-based; details: anaerobe
Clostridium perfringens = format: cell-based; details: anaerobe
Clostridium septicum = assay: Standard agar-dilution test, anaerobic bacteria; format: cell-based; details: anaerobe
Eubacterium aerofaciens = assay: Standard agar-dilution test, anaerobic bacteria; format: cell-based; details: anaerobe
[14] = tested on: Peptococcus asaccharolyticus; assay: Standard agar-dilution test, anaerobic bacteria; format: cell-based; details: anaerobe
Peptococcus prevoti = assay: Standard agar-dilution test, anaerobic bacteria; format: cell-based; details: anaerobe
[15] = tested on: Peptostreptococcus anaerobius; assay: Standard agar-dilution test, anaerobic bacteria; format: cell-based; details: anaerobe
[16] = tested on: Peptostreptococcus intermedius; assay: Standard agar-dilution test, anaerobic bacteria; format: cell-based; details: anaerobe
Propionibacterium acnes = assay: Standard agar-dilution test, anaerobic bacteria; format: cell-based; details: anaerobe
Bacteroides fragilis = assay: Standard agar-dilution test, anaerobic bacteria; format: cell-based; details: anaerobe
Fusobacterium symbiosum = assay: Standard agar-dilution test, anaerobic bacteria; format: cell-based; details: anaerobe
[17] = tested on: Fusobacterium necrophorum; assay: Standard agar-dilution test, anaerobic bacteria; format: cell-based; details: anaerobe
Staphylococcus aureus [18] = assay: Agar dilution MIC (Table XV); format: cell-based
Source text: (§1) ^1 MIC = minimum inhibitory concentration (μg/ml), agar dilution

Streptococcus pneumoniae [19] = assay: Agar dilution MIC (Table XV); format: cell-based
Source text: as §1

Streptococcus pyogenes [20] = assay: Agar dilution MIC (Table XV); format: cell-based
Source text: as §1

Staphylococcus aureus [21] = assay: Experimental bacterial infection in mice; format: in vivo; details: subcutaneous administration, two doses
Experimental: (§2) When two doses of test compound were administered to mice in illustrative infections, the activity observed as measured as an ED50 value [effective dose in mg/kg to protect fifty percent of the test animals: See Warren Wick, et al., J. Bacteriol. 81, 233-235 (1961)].

Streptococcus pneumoniae [22] = assay: Experimental bacterial infection in mice; format: in vivo; details: subcutaneous administration, two doses
Experimental: as §2

Streptococcus pyogenes [23] = assay: Experimental bacterial infection in mice; format: in vivo; details: two doses
Experimental: as §2

[24] = tested on: Streptococcus faecalis (Guze); assay: In vitro susceptibility of the S. faecalis Guze strain; format: cell-based
Source text: ^1 In vitro susceptibility of the S. faecalis Guze strain

[25] = Mouse
[26] = Rat, IV
Micrococcus luteus = assay: Paper-disc agar-diffusion bioassay; details: Na salts
[27] = tested on: Streptococcus faecalis (Guze); assay: Streptococcus faecalis descending rat pyelonephritis test; details: rat dose 1.0 mg/kg × 7, subcutaneous

CCC(C)CCCCCCC(=O)NC(Cc1c[nH]c2ccccc12)C(=O)NC(CC(N)=O)C(=O)NC(CC(=O)O)C(=O)NC1C(=O)NCC(=O)NC(CCCN)C(=O)NC(CC(=O)O)C(=O)NC(C)C(=O)NC(CC(=O)O)C(=O)NCC(=O)NC(CO)C(=O)NC(C(C)CC(=O)O)C(=O)NC(CC(=O)c2ccccc2N)C(=O)OC1C (stereo not shown) [Factor C1]
MIC [1]: 0.5 µg/mL (≈ 0.306 µM) | MIC [2]: 1.0 µg/mL (≈ 0.612 µM) | MIC [3]: 0.13 µg/mL (≈ 0.0795 µM) | MIC [4]: 0.13 µg/mL (≈ 0.0795 µM) | MIC [5]: 0.5 µg/mL (≈ 0.306 µM) | MIC [6]: 16.0 µg/mL (≈ 9.79 µM) | MIC [7]: 1.0 µg/mL (≈ 0.612 µM) | MIC [8]: 2.0 µg/mL (≈ 1.22 µM) | MIC [9]: 0.5 µg/mL (≈ 0.306 µM) | MIC [10]: 2.0 µg/mL (≈ 1.22 µM) | MIC [11]: 32.0 µg/mL (≈ 19.6 µM) | Minimum Inhibitory Concentration (Staphylococcus aureus [12]): 0.5 µg/mL | Minimum Inhibitory Concentration [13]: 0.13 to 0.25 µg/mL | MIC (Actinomyces israelii): 4 µg/mL (≈ 2.45 µM) | MIC (Clostridium perfringens): 16 µg/mL (≈ 9.79 µM) | MIC (Clostridium septicum): 4 µg/mL (≈ 2.45 µM) | MIC (Eubacterium aerofaciens): 16 µg/mL (≈ 9.79 µM) | MIC [14]: 4 µg/mL (≈ 2.45 µM) | MIC (Peptococcus prevoti): 2 µg/mL (≈ 1.22 µM) | MIC [15]: 2 µg/mL (≈ 1.22 µM) | MIC [16]: 4 µg/mL (≈ 2.45 µM) | MIC (Propionibacterium acnes): 8 µg/mL (≈ 4.89 µM) | MIC (Bacteroides fragilis): > 128 µg/mL | MIC (Fusobacterium symbiosum): > 128 µg/mL | MIC [17]: 64 µg/mL (≈ 39.2 µM) | MIC (Staphylococcus aureus [18]): 0.5 µg/mL (≈ 0.306 µM) | MIC (Streptococcus pneumoniae [19]): 0.13 µg/mL (≈ 0.0795 µM) | MIC (Streptococcus pyogenes [20]): 0.13 µg/mL (≈ 0.0795 µM) | ED50 (Staphylococcus aureus [21]): 0.22 mg/kg | ED50 (Streptococcus pneumoniae [22]): 0.3 mg/kg | ED50 (Streptococcus pyogenes [23]; oral administration): 93 mg/kg | ED50 (Streptococcus pyogenes [23]; subcutaneous administration): 0.064 mg/kg | MIC [24]: 1.0 µg/mL (≈ 0.612 µM) | LD50 ([25]; IV): > 250 mg/kg | LD50 ([25]; SC): > 365 mg/kg | LD50 [26]: 479 ± 32 mg/kg | Bioassay (Micrococcus luteus) (Micrococcus luteus): 1663 units/mg | Percent of Rats with a 4-Log Titer Decrease [27]: 50 | Percent of Rats Cured ([27]; kidney counts less than 10^2 per g): 50

CN[C@H](CC(C)C)C(=O)N[C@H]1C(=O)N[C@@H](CC(N)=O)C(=O)N[C@H]2C(=O)N[C@H]3C(=O)N[C@H](C(=O)N[C@H](C(=O)O)c4cc(O)cc(O)c4-c4cc3ccc4O)[C@H](O)c3ccc(c(Cl)c3)Oc3cc2cc(c3O[C@@H]2O[C@H](CO)[C@@H](O)[C@H](O)[C@H]2O[C@H]2C[C@](C)(N)[C@H](O)[C@H](C)O2)Oc2ccc(cc2Cl)[C@H]1O [Vancomycin, reference compound]
MIC ([24]; Enterococcus faecalis, read-out: MIC): 1 µg/mL (≈ 0.69 µM)
